Data from PMC9172550, “Novel derivatives of eugenol as potent anti-inflammatory agents via PPARγ agonism: rational design, synthesis, analysis, PPARγ protein binding assay and computational studies” (RSC Advances, 2022).

How the values were obtained:
egg albumin = egg albumin (Gallus gallus, UniProt P01012); assay: Albumin denaturation assay (in vitro anti-inflammatory activity); set-up: species or system hen; settings: means ± SD, n = 3, read-out: percentage inhibition of albumin denaturation
Experimental: In this assay egg albumin is used as protein. Protein denaturation is achieved by keeping the reaction mixture at 70 °C in a water bath for 10 minutes.
The reaction mixture containing 0.2 ml of egg albumin (from fresh hen's eggs), 2.8 ml of phosphate-buffered saline (pH 6.4), and were mixed with 2 ml of the synthesized compounds in varying concentrations. Then the samples were incubated at 37 °C for 20 min and then heated to 70 °C for 20 min. After cooling the samples, the turbidity was measured spectrophotometrically at 660 nm. […] The following formula was used to calculate the percentage inhibition of protein denaturation. [drawing 5]

PPARγ LBD protein = target: T1, PPARγ LBD protein (Homo sapiens, UniProt P37231); assay: LanthaScreen TR-FRET competitive ligand displacement (PPARγ protein binding) assay; settings: for IC50: TR-FRET PPARγ binding, tracer displacement
T1 construct: 1 nM 6xHis-PPAR LBD protein
T1 sequence (P37231 238-503 limits assumed): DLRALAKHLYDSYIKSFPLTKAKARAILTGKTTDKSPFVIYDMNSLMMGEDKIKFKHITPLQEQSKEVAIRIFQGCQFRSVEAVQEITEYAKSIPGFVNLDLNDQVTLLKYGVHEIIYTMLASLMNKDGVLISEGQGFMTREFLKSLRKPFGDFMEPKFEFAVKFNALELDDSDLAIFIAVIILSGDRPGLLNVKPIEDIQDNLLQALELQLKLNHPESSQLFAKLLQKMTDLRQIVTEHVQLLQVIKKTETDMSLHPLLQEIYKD
Experimental: Based on time-resolved fluorescence resonance energy transfer (TR-FRET), the nuclear receptor competitive binding assay was utilized to identify PPARγ ligands. […] The tracer is displaced from PPARγ-LBD by a chemical under test, resulting in a decrease in the FRET signal and a low TR-FRET ratio (Fig. 8).
We performed a time-resolved fluorescence resonance energy transfer (TR-FRET) assay using a black flat bottom 384-well plate and a buffer containing 20 mM potassium phosphate (pH 7.4), 0.5 mM EDTA, 50 mM KCl, and 0.01% Tween-20, 5 mM TCEP. For the TR-FRET coregulator interaction assay, each well contained 400 nM FITC-labeled TRAP220 or NCoR1 peptides, 1 nM LanthaScreen Elite Tb-anti-His Antibody, 4 nM 6xHis-PPARγ LBD protein and 400 nM peptide in TR-FRET buffer in 22.5 μL total volume per well. Each well ([…] per well) included 1 nM 6xHis-PPAR LBD protein, 1 nM LanthaScreen Elite Tb-anti-His Antibody, and 5 nM Fluormone Pan-PPAR Green tracer ligand in TR-FRET buffer for the ligand displacement experiment. Ligand stocks were made by serial dilution in DMSO, then added to wells in triplicate to a final DMSO concentration of 1%, then incubated at room temperature for 1 hour, and read using a BioTek Synergy Neo multimode plate reader. The Tb donor was stimulated at 340 nm, its fluorescence emission was measured at 490 nm, and the FITC emission of the acceptor was detected at 520 nm. The signal at 520 nm/490 nm was used to compute the TR-FRET ratio.[37,38]

egg albumin, sequence (P01012 2-386): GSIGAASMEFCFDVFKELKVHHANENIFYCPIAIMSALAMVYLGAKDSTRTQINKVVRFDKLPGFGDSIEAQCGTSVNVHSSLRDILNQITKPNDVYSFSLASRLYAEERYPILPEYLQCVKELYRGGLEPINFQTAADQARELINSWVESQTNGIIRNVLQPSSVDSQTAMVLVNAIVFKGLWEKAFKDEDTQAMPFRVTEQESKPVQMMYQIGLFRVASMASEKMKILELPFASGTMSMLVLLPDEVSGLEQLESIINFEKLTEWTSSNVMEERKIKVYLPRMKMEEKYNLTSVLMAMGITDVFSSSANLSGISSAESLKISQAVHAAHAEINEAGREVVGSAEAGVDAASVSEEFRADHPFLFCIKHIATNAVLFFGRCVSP

Compound	inhibition at 6.25 µM (egg albumin) [%]	inhibition at 12.5 µM (egg albumin) [%]	inhibition at 25 µM (egg albumin) [%]	inhibition at 50 µM (egg albumin) [%]	inhibition at 150 µM (egg albumin) [%]	inhibition at 200 µM (egg albumin) [%]	inhibition at 400 µM (egg albumin) [%]	IC50 (PPARγ LBD protein) [µM]	Raw Data (RLU) (PPARγ LBD protein; TR-FRET signal at 0.0000512 µM)	Raw Data - Background (RLU) (PPARγ LBD protein; TR-FRET signal at 0.0000512 µM)	Raw Data (RLU) (PPARγ LBD protein; TR-FRET signal at 0.000256 µM)	Raw Data - Background (RLU) (PPARγ LBD protein; TR-FRET signal at 0.000256 µM)	Raw Data (RLU) (PPARγ LBD protein; TR-FRET signal at 0.00128 µM)	Raw Data - Background (RLU) (PPARγ LBD protein; TR-FRET signal at 0.00128 µM)	Raw Data (RLU) (PPARγ LBD protein; TR-FRET signal at 0.0064 µM)	Raw Data - Background (RLU) (PPARγ LBD protein; TR-FRET signal at 0.0064 µM)	Raw Data (RLU) (PPARγ LBD protein; TR-FRET signal at 0.032 µM)	Raw Data - Background (RLU) (PPARγ LBD protein; TR-FRET signal at 0.032 µM)	Raw Data (RLU) (PPARγ LBD protein; TR-FRET signal at 0.16 µM)	Raw Data - Background (RLU) (PPARγ LBD protein; TR-FRET signal at 0.16 µM)	also measured
C=CCc1ccc(OCC(=O)Nc2ccc(C)cc2)c(OC)c1 [Compound 1A, 2-(4-Allyl-2-methoxyphenoxy)-N-p-tolylacetamide]	2.42 ± 0.165	5.7 ± 3.19	8.72 ± 3.93	13.3 ± 7.51	17.2 ± 8.71	25.4 ± 2.87	32 ± 2.95	13.5	2.07	1.84	2.10	1.862	2.02	1.787	1.92	1.688	2.00	1.76	1.95	1.716	Raw Data (RLU) (PPARγ LBD protein; TR-FRET signal at 0.8 µM): 1.99 RLU; Raw Data - Background (RLU) (PPARγ LBD protein; TR-FRET signal at 0.8 µM): 1.754 RLU; Raw Data (RLU) (PPARγ LBD protein; TR-FRET signal at 4 µM): 1.57 RLU; Raw Data - Background (RLU) (PPARγ LBD protein; TR-FRET signal at 4 µM): 1.332 RLU; Raw Data (RLU) (PPARγ LBD protein; TR-FRET signal at 20 µM): 1.07 RLU; Raw Data - Background (RLU) (PPARγ LBD protein; TR-FRET signal at 20 µM): 0.8399 RLU; Raw Data (RLU) (PPARγ LBD protein; TR-FRET signal at 100 µM): 0.54 RLU; Raw Data - Background (RLU) (PPARγ LBD protein; TR-FRET signal at 100 µM): 0.3006 RLU
C=CCc1ccc(OCC(=O)Nc2ccc(OC)cc2)c(OC)c1 [Compound 1B, 2-(4-Allyl-2-methoxyphenoxy)-N-(4-methoxyphenyl) acetamide]	1.71 ± 0.344	4.57 ± 0.54	6.82 ± 1.37	8.59 ± 0.205	9.45 ± 0.681	16.4 ± 5.09	30.7 ± 4.44	41.5	2.024	1.789	1.990	1.755	1.965	1.73	1.913	1.678	1.913	1.678	1.960	1.724	Raw Data (RLU) (PPARγ LBD protein; TR-FRET signal at 0.8 µM): 2.002 RLU; Raw Data - Background (RLU) (PPARγ LBD protein; TR-FRET signal at 0.8 µM): 1.767 RLU; Raw Data (RLU) (PPARγ LBD protein; TR-FRET signal at 4 µM): 1.855 RLU; Raw Data - Background (RLU) (PPARγ LBD protein; TR-FRET signal at 4 µM): 1.619 RLU; Raw Data (RLU) (PPARγ LBD protein; TR-FRET signal at 20 µM): 1.280 RLU; Raw Data - Background (RLU) (PPARγ LBD protein; TR-FRET signal at 20 µM): 1.045 RLU; Raw Data (RLU) (PPARγ LBD protein; TR-FRET signal at 100 µM): 0.534 RLU; Raw Data - Background (RLU) (PPARγ LBD protein; TR-FRET signal at 100 µM): 0.2989 RLU
